According to publication PMC4539253 (Bioorganic & medicinal chemistry letters, 2014):
Marks after values point to notes of the source that are not given here.

Columns and labels:
[1] = tested on: Caco-2; experiment: Caco-2 permeability; type: in vitro ADME; settings: <15 is limit of detection
[2] = target: CCR2 (Homo sapiens, UniProt P41597); experiment: CCR2 binding
[3] = target: mouse CCR2 (Mus musculus, UniProt P51683); experiment: Activity versus mouse CCR2
[4] = tested on: human-CCR2 knock-in mice; experiment: 6-h thioglycollate; settings: mouse, in vivo
[5] = tested on: wild-type mice; experiment: TG-induced peritonitis model using wild-type mice; type: in vivo, mouse; settings: data not shown

Sequence of CCR2 (P41597 whole entry): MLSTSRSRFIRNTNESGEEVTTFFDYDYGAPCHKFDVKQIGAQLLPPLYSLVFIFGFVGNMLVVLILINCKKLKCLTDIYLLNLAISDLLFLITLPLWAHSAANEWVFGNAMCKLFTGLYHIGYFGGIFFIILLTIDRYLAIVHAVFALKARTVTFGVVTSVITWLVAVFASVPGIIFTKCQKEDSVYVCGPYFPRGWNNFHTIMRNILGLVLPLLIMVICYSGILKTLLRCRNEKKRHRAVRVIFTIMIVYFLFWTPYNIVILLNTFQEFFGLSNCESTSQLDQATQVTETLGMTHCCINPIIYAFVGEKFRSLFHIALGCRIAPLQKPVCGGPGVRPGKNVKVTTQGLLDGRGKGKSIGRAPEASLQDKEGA
Sequence of mouse CCR2 (P51683 whole entry): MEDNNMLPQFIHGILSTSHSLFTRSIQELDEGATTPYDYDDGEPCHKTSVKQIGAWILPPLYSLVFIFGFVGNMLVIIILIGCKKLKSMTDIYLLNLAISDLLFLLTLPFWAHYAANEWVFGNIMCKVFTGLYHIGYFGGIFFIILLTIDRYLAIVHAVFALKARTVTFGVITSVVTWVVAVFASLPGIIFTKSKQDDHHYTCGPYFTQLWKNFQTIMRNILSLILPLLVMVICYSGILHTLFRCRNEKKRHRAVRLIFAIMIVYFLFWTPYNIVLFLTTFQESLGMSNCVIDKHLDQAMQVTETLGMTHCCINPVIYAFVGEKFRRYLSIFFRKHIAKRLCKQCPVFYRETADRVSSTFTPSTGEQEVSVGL

Row | Compound | Caco-2 PAP-BL [1] | activity versus mouse CCR2 [3] | also measured
1 | CC(C)N(C)[C@@H]1CC[C@H](N2CC[C@H](NC(=O)c3cccc(C(F)(F)F)c3)C2=O)[C@H](CS(C)(=O)=O)C1 [Compound 2] | <15 nm/s | poor activity | loss in CCR2 binding affinity as compared to 1 ([2]; compared to 1): ~2 fold; inflammatory monocytes (Ly6C+F4/80+) in blood as compared to vehicle [4]: significant reduction
2 | CCS(=O)(=O)C[C@@H]1C[C@H](N(C)C(C)C)CC[C@@H]1N1CC[C@H](NC(=O)c2cccc(C(F)(F)F)c2)C1=O [Compound 8] | <15 nm/s |  | IC50 [2]: 1.3 ± 0.02 nM
3 | CC(C)N(C)[C@@H]1CC[C@H](N2CC[C@H](NC(=O)c3cccc(C(F)(F)F)c3)C2=O)[C@H](CS(=O)(=O)C(C)(C)C)C1 [Compound 12] | 30 nm/s | poor activity | activity in TG-induced peritonitis model [5]: did not show any activity
4 | CC(C)N(C)[C@@H]1CC[C@H](N2CC[C@H](NC(=O)c3cccc(C(F)(F)F)c3)C2=O)[C@H](CS(=O)(=O)C(C)C)C1 [Compound 10] | <15 nm/s |  | increase in CCR2 binding affinity as compared to 2 ([2]; compared to 2): 6 fold
5 | CC(C)N(C)[C@@H]1CC[C@H](N2CC[C@H](NC(=O)c3cccc(C(F)(F)F)c3)C2=O)[C@H](CS(=O)(=O)c2ccccc2)C1 [Compound 1] | <15 ^e nm/s |  | 
